Measurements reported in PubChem BioAssay (NCI).
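Values below derive from 48-hour exposures of cells grown in 96-well plates, with endpoints linearly interpolated between the two concentrations bracketing the appropriate inhibition level. TGI is the concentration that stops growth completely.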

Experiments:
Test in all cases: NCI anticancer screen, dose series, 48 h
[1] = tested on: 786-0 renal
[2] = tested on: A498 renal
[3] = tested on: A549 NSCLC
[4] = tested on: ACHN renal
[5] = tested on: CAKI-1 renal
[6] = tested on: CCRF-CEM leukemia
[7] = tested on: COLO 205 colon
[8] = tested on: DMS 114 small cell lung
[9] = tested on: DMS 273 small cell lung
[10] = tested on: EKVX NSCLC
[11] = tested on: HCT-15 colon
[12] = tested on: HL-60(TB) leukemia
[13] = tested on: HOP-18 NSCLC
[14] = tested on: HOP-62 NSCLC
[15] = tested on: HOP-92 NSCLC
[16] = tested on: HT29 colon
[17] = tested on: IGROV1 ovarian
[18] = tested on: K-562 leukemia
[19] = tested on: KM12 colon
[20] = tested on: KM20L2 colon
[21] = tested on: LOX IMVI melanoma
[22] = tested on: LXFL 529 NSCLC
[23] = tested on: M14 melanoma
[24] = tested on: M19-MEL melanoma
[25] = tested on: MALME-3M melanoma
[26] = tested on: MOLT-4 leukemia
[27] = tested on: NCI-H226 lung
[28] = tested on: NCI-H23 lung
[29] = tested on: NCI-H460 lung
[30] = tested on: NCI-H522 lung
[31] = tested on: OVCAR-3 ovarian
[32] = tested on: OVCAR-4 ovarian
[33] = tested on: OVCAR-5 ovarian
[34] = tested on: OVCAR-8 ovarian
[35] = tested on: RPMI-8226 leukemia
[36] = tested on: RXF 393 renal
[37] = tested on: RXF-631 renal
[38] = tested on: SF-268 CNS
[39] = tested on: SF-295 CNS
[40] = tested on: SF-539 CNS
[41] = tested on: SK-MEL-2 melanoma
[42] = tested on: SK-MEL-28 melanoma
[43] = tested on: SK-MEL-5 melanoma
[44] = tested on: SK-OV-3 ovarian
[45] = tested on: SN12C renal
[46] = tested on: SNB-19 CNS
[47] = tested on: SNB-75 CNS
[48] = tested on: SW-620 colon
[49] = tested on: TK-10 renal
[50] = tested on: U251 CNS
[51] = tested on: UACC-257 melanoma
[52] = tested on: UACC-62 melanoma
[53] = tested on: UO-31 renal
[54] = tested on: XF 498 CNS

Measured: TGI

C=CCN(N=O)C(=O)NCCCC(NC(C)=O)C(=O)NCc1ccccc1 (centres undefined)
> 100 µM: [1] | [2] | [3] | [4] | [5] | [6] | [7] | [8] | [9] | [10] | [11] | [12] | [13] | [14] | [15] | [16] | [17] | [18] | [19] | [20] | [21] | [22] | [23] | [24] | [25] | [26] | [27] | [28] | [29] | [30] | [31] | [32] | [33] | [34] | [35] | [36] | [37] | [38] | [39] | [40] | [41] | [42] | [43] | [44] | [45] | [46] | [47] | [48] | [49] | [50] | [51] | [52] | [53] | [54]
